Laboratory results reported in patent US5242945A, “Tetronic and thiotetronic acid derivatives as phospholipase A2 inhibitors” (American Home Products Corporation, priority 1991, dated 1993).

Assays:
[1] = test system: purified PLA2, from the diamond back cotton mouth snake (A. piscivorus piscivorus); assay: in vivo PLA2 murine paw edema assay; design: species or system A. piscivorus piscivorus PLA2 in CD-1 mice
carrageenan paw edema = assay: rat carrageenan paw edema assay; format: in vivo, rat (Sprague-Dawley)
Description: The compounds of the invention are further tested in the rat carrageenan paw edema assay to determine their ability to inhibit the acute inflammatory response.
140-180 g Male Sprague-Dawley rats, in groups of 6 animals are injected subcutaneously in the right paw with 0.1 mL of 1% carrageenan at zero time. Mercury plethysmographic readings (mL) of the paw are made at zero time and 3 hours later. Test compounds are suspended or dissolved in 0.5% methylcellulose and given perorally 1 hour prior to carrageenan administration.
The increase in paw volume (edema in mL) produced by the carrageenan is measured. Paw edema is calculated (3 hour volume minus zero time volume), and percent inhibition of edema is determined. Unpaired Student's t-test is used to determine statistical significance.

[2] = test system: purified PLA2, from the diamond back cotton mouth snake (A. piscivorus piscivorus); assay: in vivo PLA2 murine paw edema assay; design: species or system A. piscivorus piscivorus PLA2 in CD-1 mice; remark: listed apart in the source
Description: The ability of the compounds of the invention to inhibit paw edema induced by the exogenous administration of PLA2 is measured in the in vivo PLA2 murine paw edema assay.
Non-fasted, male CD-1 mice (8 weeks old; 31-36 grams) are placed in plastic boxes in groups of six. The right hind paw volume is measured using mercury plethysmography (zero time). Compounds are dosed orally (0.5 mL of 0.5% Tween-80) 1 or 3 hours prior to PLA2 injection or intravenously (0.2 mL in 0.3% dimethylsulfoxide/saline) 3 minutes prior to PLA2 injection. A solution of purified PLA2, from the diamond back cotton mouth snake (A. piscivorus piscivorus) is prepared in saline at a concentration of 6 μg/mL. Fifty (50) μL (0.3 μg) of this PLA2 solution is injected subcutaneously into the right hind paw with a plastic 1 mL plastic syringe (27 gauge, 1" needle). Paw volume of the injected paw is measured again at 10 minutes, 30 minutes and 60 minutes after PLA2 injection. Animals are euthanized with CO2 at the completion of the study.
The paw edema is calculated by subtracting the zero time volume from the volume recorded at each time period. Mean paw edema for each treatment group is then calculated and expressed as (μL±S.E.). Drug effects are expressed as a percent change from control (vehicle) values. Statistical significance is determined by a one-way analysis of variance with LSD comparison to control (p<0.05). ED50 's are determined using […].

[3] = test system: lipoxygenase and/or cyclooxygenase pathways of arachidonic acid metabolism; assay: in vivo murine zymosan peritonitis assay; design: species or system mouse (CD-1); conditions: 100 mg/kg p.o.; negative values denote potentiation
Description: The compounds of the invention are evaluated for their ability to inhibit the lipoxygenase and/or cyclooxygenase pathways of arachidonic acid metabolism in the in vivo murine zymosan peritonitis assay.
Male CD-1 mice (8 weeks old) are placed in plastic boxes in groups of six. Animals are injected with 1 mL i.p. of either 1% zymosan in pyrogen free 0.9% saline or saline (unstimulated control). Compounds are dosed orally 1 hour prior to zymosan injection. Twenty minutes after zymosan injection, the mice are asphyxiated by CO2 inhalation and the peritoneal cavity is lavaged with 2 mL ice cold Hanks Balanced Salt Solution (HBSS) without CaCl2, MgSO4. 7H2 O and MgCl2.6H2 O. Peritoneal lavage fluid from each mouse is removed by syringe and placed in 5 mL plastic test tubes put on ice and volume is noted. Preparation of samples for evaluation by ELISA is as follows: Samples are centrifuged at 800 xg for 15 minutes; 1 mL of the supernatant is added to 8 mL ice cold methanol and kept at -70° C. overnight to precipitate protein; and samples are then centrifuged at 800 xg for 15 minutes, followed by a drying procedure in a Savant speed vac concentrator. The samples are reconstituted with 1 mL ice cold ELISA buffer and stored at -70° C. until assayed. The assay for eicosanoids (LTC4 and 6-keto-PGF1α) is performed according to conventional ELISA procedures.
Compounds to be tested orally are suspended in 0.5% Tween 80. Compounds to be tested intraperitoneally are suspended in 0.5% methylcellulose in 0.9% saline.
The total metabolite level in lavage fluid/mouse is calculated and the significance is determined by a one-way analysis of variance with LSD comparisons to control (p≤0.05). Drug effects are expressed as a percent change from control values.

## CCCC/C=C\CCCCCCCC(=O)C1=C(O)COC1=O [Example 25, 4-Hydroxy-3-((Z)-1-oxo-9-tetradecenyl)-2(5H)-furanone]
[1]; 1 mg/kg i.p.
  % Change in Edema 10 min: -50%
  % Change in Edema 30 min: -65%
  % Change in Edema 60 min: -1%
[1]; 10 mg/kg i.p.
  % Change in Edema 10 min: -38%
  % Change in Edema 30 min: -44%
  % Change in Edema 60 min: -18%
[1]; 200 mg/kg p.o.
  % Change in Edema 10 min: -40%
  % Change in Edema 30 min: -33%
  % Change in Edema 60 min: -43%

## CCCCCCCC/C=C\CCCCCCCC(=O)C1=C(O)COC1=O [Example 9, (Z)-4-Hydroxy-3-(1-oxo-9-octadecenyl)-2(5H)-furanone]
Carrageenan paw edema; 100 mg/kg peroral (dose column)
  % Inhibition: 41%
[2]; 10 mg/kg i.v.
  % Change in Edema 10 min: -48%
  % Change in Edema 30 min: -42%
  % Change in Edema 60 min: -48%
[2]; 100 mg/kg p.o.
  % Change in Edema 10 min: -1%
  % Change in Edema 30 min: +1.5%
  % Change in Edema 60 min: +7.1%

## CCCCCCCCCC(=O)C1=C(O)COC1=O [Example 1, 4-Hydroxy-3-(1-oxodecyl)-2(5H)-furanone]
[3]
  % Inhibition 6-keto-PGF: -58%
  % Inhibition LTC4: -58%
Carrageenan paw edema; 50 mg/kg peroral
  % Inhibition: 40%
[2]; 10 mg/kg i.v.
  % Change in Edema 10 min: -51%
  % Change in Edema 30 min: -43%
  % Change in Edema 60 min: -23%
[2]; 100 mg/kg p.o.
  % Change in Edema 10 min: -36%
  % Change in Edema 30 min: -29%
  % Change in Edema 60 min: -29%
